Test results: patent US20030104507A1, “Method for detection of ATP” (priority 2001, published 2003)

Test system: ATPase activity endogenous to L929 cell lysate
Test: Detergent inhibition of ATPase endogenous to L929 cell lysate (ATP remaining by luciferase luminescence, 22° C.)
Format: biochemical
Set-up: key to Relative ATPase Activity, slope det/slope lysate: slope with detergent / slope without; ≥1.0 = 100% activity, 0.5 = 50%
Procedure: Three separate detergents in each of four detergent classes were tested: anionic [SDS (Sodium dodecyl sulfate), Bioterge (an α olefin sulfate), and sodium deoxycholate], nonionic [TRITON X-100, BigCHAP (N,N-bis(3-D-Gluconamidopropyl)cholamide) and THESIT (polyethylene glycol 400 dodecyl ether, Fluka, #88315)], cationic [BDDABr (Benzyldimethyldodecylammonium bromide), CTAB (Cetyltrimethylammonium bromide), and DTAB (dodecyltrimethylammonium bromide)] and zwitterionic [CHAPS (3[(3-Cholamidopropyl)dimethylammonio]propanesulfonic acid), CHAPSO (3-([3-Cholamidopropyl]dimethylammonio)-2-hydroxy-1-propanesulfonate), and Sulfobetaine 3-10 ([…]-N,N-dimethyl-3-ammonio-1-propanesulfonate)]. Detergents were obtained from Sigma, Fluka and Aldrich.
L929 cells (ATCC CCL-1; 1.5×10^5 cells/ml) in F12/DMEM (Hyclone, SH30023) containing 10% horse serum (Hyclone, SH30074) were frozen and thawed for four cycles to create a cell lysate. Then 50 μl of stock detergent solutions [10%, 5.0%, 1.0%, and 0.5% (w/v)] were separately added to 450 μl cell lysate, creating a final detergent concentration in the cell lysate sample of 1.0%, 0.5%, 0.1%, and 0.05%, respectively (these percentage values are those used in Tables D and E herein below). Control samples contained either lysate only or 1.0 μM ATP in 15 mM HEPES buffer (pH 7.5). All samples were incubated at 22° C. (room temperature) for the duration of the experiment.
At various timepoints, 20 μl from each sample/detergent mixture was added to a 96-well luminometer plate in triplicate, and then 100 μl of a solution (“luciferase-luciferin” or “L/L reagent”) containing 25 mM HEPES buffer (pH 7.5), 40 μg luciferase enzyme LucPpe2m146 (Promega, E140), 100 μM luciferin (Promega), and 10 mM MgSO4 was added to each well. The L/L reagent was stored at 4° C. for the duration of the experiment and then allowed to reach ambient temperature just before assaying. After mixing the contents of the plate, light output was measured with a Dynex MLX microtiter plate luminometer (Chantilly, Va.), 0.5 second reads per well with the first measurement taken five minutes after the detergent solution was combined with the sample. The average relative light units and the timepoint at which it was measured (rlu; Table D) and percent of remaining luciferase activity at the timepoint (Table E) are reported; controls were run with each set of experimental conditions as indicated. The cationic and anionic detergents were assayed on one day with one set of controls. The zwitterionic and nonionic detergents were assayed on a separate day with a separate set of controls. The DTAB at 0.5% was assayed on both days (1 and 2).
The experiment was performed as detailed in Example 1. The average relative light unit values and the percent of ATP remaining values are listed below in Table F and G respectively.
The log of the percent of ATP remaining after original timepoint values from Table E and Table G were plotted on the y axis against time (in minutes) on the x axis. The slope of the line generated by these values in the presence of detergent was divided by the slope of the line generated by the values in the absence of detergent (lysate control) resulting in the Relative ATPase Activity values listed below in Table H.
A relative activity value of 1.0 or greater indicates 100% cellular ATPase activity at the concentration of detergent tested. A relative activity value of 0.5 indicates a two-fold (or 50%) decrease in the level of cellular ATPase activity at the concentration of detergent tested when compared to the ATPase activity level in the absence of the detergent. A relative activity value of 0.2 indicates a five-fold (or 80%) decrease in the level of cellular ATPase activity at the concentration of detergent tested when compared to the ATPase activity level in the absence of the detergent.

C[C@H](CCC(=O)NCCC[N+](C)(C)CC(O)CS(=O)(=O)[O-])[C@H]1CC[C@H]2[C@@H]3[C@H](O)C[C@@H]4C[C@H](O)CC[C@]4(C)[C@H]3C[C@H](O)[C@]12C (stereo partly drawn) [CHAPSO, 3-([3-Cholamidopropyl]dimethylammonio)-2-hydroxy-1-propanesulfonate]
Average Relative Light Unit Values (0.05% detergent, 5 min): 6396.53 rlu | Percent ATP Remaining (0.05% detergent, 5 min): 100% | Average Relative Light Unit Values (0.05% detergent, 75 min): 2424.54 rlu | Percent ATP Remaining (0.05% detergent, 75 min): 37.9% | Average Relative Light Unit Values (0.05% detergent, 169 min): 1124.83 rlu | Percent ATP Remaining (0.05% detergent, 169 min): 17.6% | Average Relative Light Unit Values (0.05% detergent, 222 min): 480.09 rlu | Percent ATP Remaining (0.05% detergent, 222 min): 7.5% | Average Relative Light Unit Values (0.05% detergent, 260 min): 238.80 rlu | Percent ATP Remaining (0.05% detergent, 260 min): 3.7% | Relative ATPase Activity, slope det/slope lysate (0.05 percent detergent): 1.080 | Slope (log percent ATP remaining vs time in minutes) (0.05 percent detergent): −0.0057 | Average Relative Light Unit Values (0.1% detergent, 5 min): 6549.85 rlu | Percent ATP Remaining (0.1% detergent, 5 min): 100% | Average Relative Light Unit Values (0.1% detergent, 75 min): 2584.56 rlu | Percent ATP Remaining (0.1% detergent, 75 min): 39.5% | Average Relative Light Unit Values (0.1% detergent, 169 min): 1210.14 rlu | Percent ATP Remaining (0.1% detergent, 169 min): 18.5% | Average Relative Light Unit Values (0.1% detergent, 222 min): 558.69 rlu | Percent ATP Remaining (0.1% detergent, 222 min): 8.5% | Average Relative Light Unit Values (0.1% detergent, 260 min): 280.84 rlu | Percent ATP Remaining (0.1% detergent, 260 min): 4.3% | Relative ATPase Activity, slope det/slope lysate (0.10 percent detergent): 1.030 | Slope (log percent ATP remaining vs time in minutes) (0.10 percent detergent): −0.0054 | Average Relative Light Unit Values (0.5% detergent, 5 min): 7422.26 rlu | Percent ATP Remaining (0.5% detergent, 5 min): 100% | Average Relative Light Unit Values (0.5% detergent, 75 min): 4089.32 rlu | Percent ATP Remaining (0.5% detergent, 75 min): 55.1% | Average Relative Light Unit Values (0.5% detergent, 169 min): 2581.01 rlu | Percent ATP Remaining (0.5% detergent, 169 min): 34.8% | Average Relative Light Unit Values (0.5% detergent, 222 min): 1460.54 rlu | Percent ATP Remaining (0.5% detergent, 222 min): 19.7% | Average Relative Light Unit Values (0.5% detergent, 260 min): 923.81 rlu | Percent ATP Remaining (0.5% detergent, 260 min): 12.4% | Relative ATPase Activity, slope det/slope lysate (0.50 percent detergent): 0.685 | Slope (log percent ATP remaining vs time in minutes) (0.50 percent detergent): −0.0036 | Average Relative Light Unit Values (1.0% detergent, 5 min): 7160.63 rlu | Percent ATP Remaining (1.0% detergent, 5 min): 100% | Average Relative Light Unit Values (1.0% detergent, 75 min): 3803.84 rlu | Percent ATP Remaining (1.0% detergent, 75 min): 53.1% | Average Relative Light Unit Values (1.0% detergent, 169 min): 2376.31 rlu | Percent ATP Remaining (1.0% detergent, 169 min): 33.2% | Average Relative Light Unit Values (1.0% detergent, 222 min): 1332.97 rlu | Percent ATP Remaining (1.0% detergent, 222 min): 18.6% | Average Relative Light Unit Values (1.0% detergent, 260 min): 840.57 rlu | Percent ATP Remaining (1.0% detergent, 260 min): 11.7% | Relative ATPase Activity, slope det/slope lysate (1.00 percent detergent): 0.703 | Slope (log percent ATP remaining vs time in minutes) (1.00 percent detergent): −0.0037

TRITON X-100
Average Relative Light Unit Values (0.05% detergent, 5 min): 6160.71 rlu | Percent ATP Remaining (0.05% detergent, 5 min): 100% | Average Relative Light Unit Values (0.05% detergent, 75 min): 1964.17 rlu | Percent ATP Remaining (0.05% detergent, 75 min): 31.9% | Average Relative Light Unit Values (0.05% detergent, 169 min): 822.48 rlu | Percent ATP Remaining (0.05% detergent, 169 min): 13.4% | Average Relative Light Unit Values (0.05% detergent, 222 min): 303.73 rlu | Percent ATP Remaining (0.05% detergent, 222 min): 4.9% | Average Relative Light Unit Values (0.05% detergent, 260 min): 147.48 rlu | Percent ATP Remaining (0.05% detergent, 260 min): 2.4% | Relative ATPase Activity, slope det/slope lysate (0.05 percent detergent): 1.228 | Slope (log percent ATP remaining vs time in minutes) (0.05 percent detergent): −0.0065 | Average Relative Light Unit Values (0.1% detergent, 5 min): 6837.20 rlu | Percent ATP Remaining (0.1% detergent, 5 min): 100% | Average Relative Light Unit Values (0.1% detergent, 75 min): 3004.57 rlu | Percent ATP Remaining (0.1% detergent, 75 min): 43.9% | Average Relative Light Unit Values (0.1% detergent, 169 min): 1643.05 rlu | Percent ATP Remaining (0.1% detergent, 169 min): 24.0% | Average Relative Light Unit Values (0.1% detergent, 222 min): 801.38 rlu | Percent ATP Remaining (0.1% detergent, 222 min): 11.7% | Average Relative Light Unit Values (0.1% detergent, 260 min): 448.93 rlu | Percent ATP Remaining (0.1% detergent, 260 min): 6.6% | Relative ATPase Activity, slope det/slope lysate (0.10 percent detergent): 0.889 | Slope (log percent ATP remaining vs time in minutes) (0.10 percent detergent): −0.0047 | Average Relative Light Unit Values (0.5% detergent, 5 min): 6106.61 rlu | Percent ATP Remaining (0.5% detergent, 5 min): 100% | Average Relative Light Unit Values (0.5% detergent, 75 min): 1880.98 rlu | Percent ATP Remaining (0.5% detergent, 75 min): 30.8% | Average Relative Light Unit Values (0.5% detergent, 169 min): 871.01 rlu | Percent ATP Remaining (0.5% detergent, 169 min): 14.3% | Average Relative Light Unit Values (0.5% detergent, 222 min): 378.58 rlu | Percent ATP Remaining (0.5% detergent, 222 min): 6.2% | Average Relative Light Unit Values (0.5% detergent, 260 min): 195.42 rlu | Percent ATP Remaining (0.5% detergent, 260 min): 3.2% | Relative ATPase Activity, slope det/slope lysate (0.50 percent detergent): 1.117 | Slope (log percent ATP remaining vs time in minutes) (0.50 percent detergent): −0.0059 | Average Relative Light Unit Values (1.0% detergent, 5 min): 6073.78 rlu | Percent ATP Remaining (1.0% detergent, 5 min): 100% | Average Relative Light Unit Values (1.0% detergent, 75 min): 1774.10 rlu | Percent ATP Remaining (1.0% detergent, 75 min): 29.2% | Average Relative Light Unit Values (1.0% detergent, 169 min): 839.14 rlu | Percent ATP Remaining (1.0% detergent, 169 min): 13.8% | Average Relative Light Unit Values (1.0% detergent, 222 min): 331.95 rlu | Percent ATP Remaining (1.0% detergent, 222 min): 5.5% | Average Relative Light Unit Values (1.0% detergent, 260 min): 174.89 rlu | Percent ATP Remaining (1.0% detergent, 260 min): 2.9% | Relative ATPase Activity, slope det/slope lysate (1.00 percent detergent): 1.152 | Slope (log percent ATP remaining vs time in minutes) (1.00 percent detergent): −0.0061
